Key:
3T3-L1 cells = test: Adipogenesis assay (in vitro), Nile Red lipid staining; assay type: cell-based; details: Mus musculus, mean values of at least 2 independent tests, read-out: Adipogenesis inhibition IC50
Method: 3T3-L1 cells (mouse embryonic fibroblast-like adipocyte cell line) are seeded in a 48-well plate with collagen I-coating in a concentration of 3×10^4 cells/well. After 72 h cultivation at 37° C. and 5% CO2 in DMEM (Dulbecco's Modified Eagle Medium), enriched with 10% calf serum, various concentrations of the test substances in DMEM, enriched with 10% foetal calf serum and to which are added 1 μg/ml insulin, 0.25 μM dexamethasone and 0.5 mM IBMX (3-isobutyl-1-methylxanthine), are added and incubated for a further 48 h. A media change takes place, in that DMEM, enriched with 10% foetal calf serum and with 1 μg/ml insulin added, are applied. After renewed cultivation for 48 h, a further media change takes place, in which DMEM, enriched with 10% foetal calf serum, is applied.
After a further incubation for 72 h, the intracellularly stored lipids are quantified as a measure for the differentiation of the cells by measuring the fluorescence after staining of the lipids with the fluorescent dye Nile Red.
The inhibition of the adipogenesis in the presence of the test substances is calculated according to the following equation:
[formula] wherein RFU test substance=relative fluorescent units of the wells with test substance and with cells RFU control=relative fluorescent units of the wells without test substance, but with cells RFU control without cells=relative fluorescent units of the wells without test substance and without cells The IC50 is calculated from the adipogenesis inhibition [%] in a series of dilutions of tested samples. This is the concentration at which the adipogenesis is 50% inhibited.

lipoprotein lipase (LPL) = biological target: T1, lipoprotein lipase (LPL) (Mus musculus, UniProt P11152); test: Inhibition of LPL (lipogenesis assay), MUF oleate hydrolysis; assay type: biochemical; details: LPL obtained from differentiated 3T3-L1 cells; mean values of at least 2 independent tests
T1 construct: endogenous in cells; host or cells: differentiated 3T3-L1 cells (mouse); heparin-released supernatant
T1 sequence (P11152 28-474): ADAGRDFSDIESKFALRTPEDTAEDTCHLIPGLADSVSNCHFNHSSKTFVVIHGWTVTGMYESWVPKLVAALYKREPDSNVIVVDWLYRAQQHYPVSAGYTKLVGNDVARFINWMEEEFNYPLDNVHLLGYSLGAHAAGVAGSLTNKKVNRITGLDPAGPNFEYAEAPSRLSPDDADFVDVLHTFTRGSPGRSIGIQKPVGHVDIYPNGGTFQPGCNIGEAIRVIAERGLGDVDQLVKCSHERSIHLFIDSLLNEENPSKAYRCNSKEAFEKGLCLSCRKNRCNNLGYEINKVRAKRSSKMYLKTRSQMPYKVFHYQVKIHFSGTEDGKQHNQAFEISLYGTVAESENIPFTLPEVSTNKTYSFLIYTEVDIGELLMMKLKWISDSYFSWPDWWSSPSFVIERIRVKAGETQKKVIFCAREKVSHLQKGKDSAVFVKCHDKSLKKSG
Excerpt: Lipogenesis is perceived as the storage of triglycerides in adipocytes. The inhibition of this storage can take place by means of the inhibition of the activity of extracellular lipoprotein lipase (LPL) in that the hydrolysis of extracellular triglycerides and therefore the absorption of free fatty acids by adipocytes are reduced. As a preliminary test, the inhibition of pancreatic lipase (PL) is investigated.
The results of the inhibition of the PL are used as a preliminary test and are confirmed on LPL. To obtain LPL, 3T3-L1 cells (mouse embryonic fibroblast-like adipocyte cell line) are seeded in a 6-well plate with collagen I-coating in a concentration of 3×10^5 cells/well. The cultivation and differentiation of the cells takes place analogously to the details in Example 2 (adipogenesis assay). During the differentiation LPL is increasingly expressed. The LPL is present in a membrane-bound state and is released by one hour incubation with heparin solution at 2-8° C. to the supernatant of the cells.
The LPL thus obtained, in the presence of test substances in different use concentrations, has methylumbelliferyl oleate (MUF oleate) added as the substrate. Fluorescent methylumbelliferyl (MUF) is produced by hydrolysis of the MUF oleate by LPL and is quantified. The inhibition of the hydrolysis of the MUF oleate is a measure of the inhibition of the activity of the LPL and therefore the lipogenesis.
[formula] wherein MUF test substance=MUF concentration of the wells with test substance and with LPL MUF control=MUF concentration of the wells without test substance, but with LPL MUF control without LPL=MUF concentration of the wells without test substance and without LPL
The IC50 is calculated from the inhibition of the LPL [%] in a series of dilutions of tested samples. This is the concentration at which the activity of the LPL and therefore the lipogenesis is 50% inhibited.

[1] = tested on: ex vivo pig skin model including subcutis fat layer; test: Lipolysis assay, ex vivo pig skin model, free glycerol release; assay type: cell-based; details: conc. 0.1% in cosmetic test preparation, topical on ex vivo pig skin, 24 hours, versus placebo
Excerpt: Full thickness pig skin patches (pig skin model including subcutis fat layer as described in EP 1 939 279) are excised from the dorsal part of young pig slaughtered for meat. The ex vivo pig skin models have a size of 7×3 mm (diameter×height). They are placed on a titanium grid dipped in culture medium. On top of the skin samples formulations are applied. In parallel to a cosmetic test preparation containing one or more compounds of formula (I) a placebo preparation without any compound of formula (I) is applied as reference (blank).
After 24 hours of incubation, the quantification of free glycerol in the medium surrounding the pig skin models was performed. The glycerol is released by the cells after hydrolysis of triglycerides in the cells of the adipose tissue and is a measure of the lipolysis of the pig skin models. The quantification of the free glycerol is carried out based on an enzymatic method with a free glycerol reagent.
Cosmetic Test Preparation:
Phases A and B are heated to 70° C. separately. Pemulen TR1 as well as Ultrez-21 are dispersed in phase B when heated to 70° C. Phase B/C is added to phase A by mixing with an Ultra Turrax, followed by emulsifying. Phase D is slowly added to phase A/B/C using a paddle mixer and a pH 5.5-6 is adjusted. The formulation is cooled down while mixing with a paddle mixer. Phase E is prepared by dissolving one or more compounds of formula (I) in Hydrolite-5. Subsequently, phase E is added to the mixture of phase A-D.
The stimulation of the lipolysis in the presence of test substances is calculated according to the following equation:
[formula] wherein A test substance=absorption of the wells with medium of ex vivo skin models, on which the formulation containing the test substance was applied A placebo=absorption of the wells with medium of ex vivo skin models, on which the placebo without test substance was applied

Row | IC50 (lipoprotein lipase (LPL)) [µM] | SMILES | IC50 (3T3-L1 cells) [µM] | Stimulation of lipolysis [1] [%]
1 | 610 | CCCCNC(=O)OC1C(C)CCC(C)C1C (stereo not drawn) [BIO1617, Butyl-carbamic acid 2,3,6-trimethyl-cyclohexyl ester] | 79 | 21
2 | 1440 | CCC(C)NC(=O)OC1CCCC(C)C1C (stereo not drawn) [BIO1845, sec-Butyl-carbamic acid 2,3-dimethyl-cyclohexyl ester] | 96 | 29
3 | 1200 | CCCCNC(=O)OC1CCCCC1C(C)C (stereo not drawn) [BIO1841, Butyl-carbamic acid 2-isopropyl-cyclohexyl ester] | 59 | 25

Reference: patent US9012497B2, “Cyclohexyl carbamate compounds as active anti-cellulite ingredients” (Symrise AG, priority 2010, dated 2015)
